Laboratory results as given in ChEMBL document CHEMBL3301361, “Experimental in vitro DMPK and physicochemical data on a set of publicly disclosed compounds”.
In brackets after ≈: the same amount, converted by molar mass.

Legend:
physchem [1] = details: octan-1-ol/water, pH 7.4, LogD7.4
physchem [2] = details: pH 7.4 buffer

SMILES | logD (physchem [1]) | solubility thermodynamic (physchem [2]) [µM]
COc1ccc(Cl)cc1NC(=O)Nc1cnccn1 | 3.63 | 0.7 (≈ 0.195 µg/mL)
CC1(C)C(=O)N(c2ccc(SC(F)(F)F)cc2)C(=O)N1Cc1ccnc(N2CCOCC2)c1 | 3.73 | 3 (≈ 1.44 µg/mL)
Cc1ccc(CO)cc1N(C)c1ccnc(Nc2cc(N3CCCC3)cc(N3CCOCC3)c2)n1 | 3.8 | 11.5 (≈ 5.46 µg/mL)
COc1cc(Nc2nccc(N(C)c3cc(CO)ccc3C)n2)cc(N2CCOCC2)c1 | 3.9 | 56.2 (≈ 24.5 µg/mL)
CCN(c1ccnc(Nc2cc(N3CCOCC3)cc(N3CCOCC3)c2)n1)c1cc(CO)ccc1C | 3.8 | 72.4 (≈ 36.5 µg/mL)
Cc1ccc(CO)cc1N(C)c1ccnc(Nc2cc(N3CCOCC3)nc(N3CCOCC3)c2)n1 | 3.44 | 39.8 (≈ 19.6 µg/mL)
COc1cc(N2CCN(C(C)=O)CC2)ccc1Nc1ncc(C(F)(F)F)c(-c2cnc3ccccn23)n1 | 3.7 | 8.9 (≈ 4.55 µg/mL)
COc1cc(N2CCN(C(C)=O)CC2)ccc1Nc1ncc(Cl)c(-c2cnc3cc(N4CCCC4)ccn23)n1 | 3.5 | 1.4 (≈ 0.766 µg/mL)
CCOC(=O)c1ccc(OCCC2(C#N)CCN(c3ccc(C)nn3)CC2)cc1 | 3.54 | 58.9 (≈ 23.2 µg/mL)
COc1cc2ncnc(Nc3cc(NC(=O)c4cccc(N5CCOCC5)c4)ccc3C)c2cc1OC | 3.6 | 14.5 (≈ 7.24 µg/mL)
Cc1c(Oc2ccc(S(C)(=O)=O)cc2F)ncnc1OC1CCN(C(=O)OC(C)C)CC1 | 3.7 | 3 (≈ 1.4 µg/mL)
CCn1cc(NC(=O)Cc2ccc(Oc3ccnc4cc(F)ccc34)cc2OC)cn1 | 3.93 | 2 (≈ 0.841 µg/mL)
COc1ccc2c(Oc3ccc(CC(=O)Nc4n[nH]c(C)c4C)c(OC)c3)ccnc2c1 | 3.78 | 8.3 (≈ 3.59 µg/mL)
O=C(Nc1ccc(N2CCOCC2)cc1)c1nnc(NC(=O)C2(c3ccc(Cl)cc3)CCCC2)o1 | 3.72 | 8.7 (≈ 4.31 µg/mL)
O=C(Nc1ccc(Cl)c(Cl)c1)N1CCN(C[C@@H]2CCCN(C3CC3)C2)CC1 | 3.57 | 288 (≈ 119 µg/mL)
COc1cc2ncnc(Nc3cccc(Cl)c3F)c2cc1CN1CCC[C@H]1C(N)=O | 3.58 | 257 (≈ 110 µg/mL)
COc1cc2ncnc(Nc3cccc(Cl)c3F)c2cc1CN1CCC[C@@H]1C(N)=O | 3.58 | 195 (≈ 83.8 µg/mL)
CCCc1cc(Nc2nc(NCc3cc(C)no3)ncc2Br)n[nH]1 | 3.63 | 2.7 (≈ 1.06 µg/mL)
CCn1c(-c2nonc2N)nc2c(C#CC(C)(C)O)ncc(OCC3CCCNC3)c21 (centres undefined) | 0.6 | 135 (≈ 57.4 µg/mL)
O=S(=O)(Cc1c(F)cccc1F)N1CCN(c2ncccc2C(F)(F)F)CC1 | 3.9 | 2 (≈ 0.843 µg/mL)

SMILES | logD (physchem [1]) | solubility thermodynamic (physchem [2]) [µM]
COc1cc2c(Nc3cc(CC(=O)Nc4cccc(F)c4F)[nH]n3)ncnc2cc1OCCCN(CCO)CC(C)C | 3.61 | 132 (≈ 76.9 µg/mL)
Cc1ncc(C(N)=O)nc1-c1ccc([C@H]2CC[C@H](C(=O)O)CC2)cc1 | 0.22 | 1230 (≈ 418 µg/mL)
CS(=O)(=O)C1(c2cc(N3CCOCC3)nc(-c3cccc4[nH]ccc34)n2)CCNCC1 | 0.7 | 234 (≈ 104 µg/mL)
O=C(CO)N1CCC[C@@H]1COc1cccc2ncnc(Nc3ccc(OCc4ccccn4)c(Cl)c3)c12 | 3.71 | 2.2 (≈ 1.14 µg/mL)
CC(C)(C)Cn1c(CN2C(=O)CC3(CCNCC3)C2=O)cc2cnc(C#N)nc21 | 0.75 | 575 (≈ 227 µg/mL)
Cc1ccc(Oc2ccc(Nc3ncnc4cccc(O[C@H](C)C(=O)N(C)CCO)c34)cc2C)cn1 | 3.85 | 63.1 (≈ 30.8 µg/mL)
COc1cc2ncnc(Nc3ccc(F)c(Cl)c3)c2cc1OC | 3.67 | 7.2 (≈ 2.4 µg/mL)
Cc1ccc(-c2nn(C(C)(C)C)c3ncnc(N)c23)cc1 | 4.1 | 9.8 (≈ 2.76 µg/mL)
Cc1cc(C)cc(-c2[nH]c3sc(C(C)(C)C(=O)N4C5CCC4CC5)cc3c2CCN2CCN(CC(=O)N(C)C)CC2)c1 | 4.13 | 100 (≈ 59 µg/mL)
Cc1ccc(Oc2ccc(Nc3ncnc4cccc(O[C@H](C)C(=O)N5CCOCC5)c34)cc2C)cn1 | 4.14 | 7.6 (≈ 3.8 µg/mL)
O=C(CO)N1CCC[C@H]1COc1cccc2ncnc(Nc3ccc(OCc4ccccn4)c(Cl)c3)c12 | 3.62 | 1.9 (≈ 0.988 µg/mL)
COc1cc(Nc2ncnc3cccc(O[C@H](C)C(=O)N4CCOCC4)c23)ccc1Oc1ccc(C)nc1 | 3.6 | 37.2 (≈ 19.2 µg/mL)
CCn1c(=O)ccc2cc(COc3cc(F)cc(C4(OC)CCOCC4)c3)ccc21 | 3.89 | 1.7 (≈ 0.7 µg/mL)
Cc1ncc(-c2ccnc(Nc3ccc(N(C)C)cc3)n2)n1C(C)C | 3.51 | 100 (≈ 33.6 µg/mL)
Cc1cc(C)cc(-c2[nH]c3ccc(C(C)(C)C(=O)N4C5CCC4CC5)cc3c2CCNCCCCc2ccncc2)c1 | 4.3 | 35.5 (≈ 20 µg/mL)
COc1cc2ncc(C(N)=O)c(Nc3cccc(Cl)c3)c2cc1OC | 3.5 | 10 (≈ 3.58 µg/mL)
CC(C)Oc1cc(Oc2ccc(S(C)(=O)=O)cc2)cc(C(=O)Nc2nccs2)c1 | 3.61 | 5.2 (≈ 2.25 µg/mL)
O=C(N1CCN(c2ccncc2Cl)CC1)N1CCN(S(=O)(=O)c2ccc(C(F)(F)F)cc2)CC1 | 3.54 | 3.9 (≈ 2.02 µg/mL)
COc1ccc(Cn2cc3c(=O)n(C)c(=O)n(CC(C)C)c3c2)cc1 | 3.52 | 17 (≈ 5.8 µg/mL)
Cc1cc(C)cc(-c2[nH]c3ccc(C(C)(C)C(=O)N4C5CCC4CC5)cc3c2[C@H](C)CNCCc2ccncc2)c1 | 4.35 | 148 (≈ 81.2 µg/mL)

Further lines, results first:

logD (physchem [1]) | solubility thermodynamic (physchem [2]) [µM] | SMILES
4.12 | 1.4 (≈ 0.589 µg/mL) | C[C@@H]1CN(c2nc(N3CCOCC3)c3ccc(Nc4ccccc4)nc3n2)C[C@H](C)O1
3.72 | 70.8 (≈ 24.8 µg/mL) | CC(C)Cn1cnc(-c2ccccc2)c1-c1nc2c(N)ncnc2s1
3.8 | 3.4 (≈ 1.49 µg/mL) | O=C(NCCNC(=O)c1cn(-c2ccccc2)nc1C(F)(F)F)c1ccc(Cl)cn1
3.58 | 35.5 (≈ 10.4 µg/mL) | Cc1ncc(-c2ccnc(Nc3ccccc3)n2)n1C(C)C
3.8 | 11 (≈ 3.62 µg/mL) | Cn1c2ccccc2c2cc(NC(=O)CCc3ccncc3)ccc21
3.7 | 11.5 (≈ 4.77 µg/mL) | CS(=O)(=O)c1cccc(Nc2nccc(Nc3c(Cl)ccc4ccoc34)n2)c1
3.52 | 5.4 (≈ 2.05 µg/mL) | CS(=O)(=O)c1cccc(Nc2nccc(Nc3cccc4ccoc34)n2)c1
3.89 | 3.1 (≈ 1.05 µg/mL) | CCCc1c(C(=O)Nc2ccc(F)cc2C)cnn1-c1ccccc1
3.8 | 12.6 (≈ 3.15 µg/mL) | c1ccc(Nc2cc(Nc3ccccc3)[nH]n2)cc1
4.36 | 3.5 (≈ 1.64 µg/mL) | O=C(NC1CCCC1)C(c1ccncc1)N(Cc1ccco1)C(=O)c1ccc(-c2ccccc2)[nH]1 (centres undefined)
3.8 | 52.5 (≈ 13.3 µg/mL) | O=C(NCCCCc1ccccc1)c1ccccc1
0.5 | 1020 (≈ 319 µg/mL) | N#Cc1cnn(-c2ccccc2)c1NC(=O)CN1CCOCC1
3.69 | 25.7 (≈ 9.4 µg/mL) | CSCCC(NC(=O)c1sccc1Cl)c1nc2ccccc2[nH]1 (centres undefined)
3.6 | 53.7 (≈ 26.7 µg/mL) | C=CCN(C(=O)NCc1ccc(OC)cc1)C1CCN(CCC(c2ccccc2)c2ccccc2)CC1
3.85 | 141 (≈ 63.4 µg/mL) | O=C(Nc1ccccc1)c1ccc(OCCCN2CCCC2)cc1OCc1ccccc1F
3.67 | 44.7 (≈ 20 µg/mL) | O=C(Nc1ccccc1)c1ccc(OCCCN2CCCC2)cc1OCc1cccc(F)c1
3.67 | 1.4 (≈ 0.587 µg/mL) | COc1ccc(C(=O)Nc2cccc(NC(=O)c3cccc(N(C)C)c3)c2)cc1OC
-0.31 | 398 (≈ 181 µg/mL) | CNc1cccc(CCOc2ccc(C[C@H](NC(=O)c3ccccc3Cl)C(=O)O)cc2)n1
-0.42 | 1230 (≈ 581 µg/mL) | CNc1cccc(CCOc2ccc(C[C@H](NC(=O)c3c(F)cccc3Cl)C(=O)O)cc2)n1

logD (physchem [1]) | solubility thermodynamic (physchem [2]) [µM] | SMILES
-0.15 | 1510 (≈ 739 µg/mL) | CNc1cccc(CCOc2ccc(C[C@H](NC(=O)c3c(Cl)cccc3Cl)C(=O)O)cc2)n1
0.57 | 1510 (≈ 736 µg/mL) | CNc1cccc(CCCc2ccc(C[C@H](NC(=O)c3c(Cl)cccc3Cl)C(=O)O)cc2)n1
0.33 | 107 (≈ 55.1 µg/mL) | O=C(N[C@@H](Cc1ccc(OCCc2ccc3c(n2)NCCC3)cc1)C(=O)O)c1c(Cl)cccc1Cl
0.6 | 324 (≈ 166 µg/mL) | O=C(N[C@@H](Cc1ccc(OCCNc2nc3ccccc3[nH]2)cc1)C(=O)O)c1c(Cl)cccc1Cl
3.84 | 11.5 (≈ 2.56 µg/mL) | O=c1oc(-c2ccccc2)cc2ccccc12
3.6 | 69.2 (≈ 31.7 µg/mL) | CN(C)CCOc1ccc(-c2oc3ncnc(NC[C@@H]4CCCO4)c3c2-c2ccccc2)cc1
3.8 | 36.3 (≈ 9.09 µg/mL) | COc1cccc(-c2c[nH]c(-c3ccccc3)n2)c1
3.75 | 2 (≈ 0.687 µg/mL) | CCn1c2ccccc2c2cc(NC(=O)CCc3ccncc3)ccc21
3.8 | 151 (≈ 33.3 µg/mL) | c1ccc(-c2c[nH]c(-c3ccccc3)n2)cc1
3.5 | 3.6 (≈ 1.27 µg/mL) | CN(C)C(=O)[C@H](Cc1ccccc1)NC(=O)c1cc2cc(F)ccc2[nH]1
0.7 | 219 (≈ 56.3 µg/mL) | Cn1c(=O)c2[nH]c(-c3cccnc3)nc2n(C)c1=O
3.67 | 6.2 (≈ 2.96 µg/mL) | C[C@@H](Oc1cccc2ncnc(Nc3ccc(OCc4ccccn4)c(Cl)c3)c12)C(=O)N(C)C
3.65 | 27.5 (≈ 6.69 µg/mL) | Oc1ccc(-c2nc3ccc(O)cc3s2)cc1
3.62 | 107 (≈ 33.4 µg/mL) | Cc1ncc(-c2ccnc(Nc3ccc(F)cc3)n2)n1C(C)C
4.1 | 7.9 (≈ 1.8 µg/mL) | Oc1ccc(-c2nc3ccccc3s2)cc1
0.63 | 661 (≈ 238 µg/mL) | NC(=O)COc1ccc(OCCNCC(O)COc2ccccc2)cc1 (centres undefined)
4.06 | 15.1 (≈ 3.96 µg/mL) | c1ccc(Nc2ccnc(Nc3ccccc3)n2)cc1
3.9 | 0.3 (≈ 0.0997 µg/mL) | COc1cc2ncnc(Nc3cc4ccccc4cn3)c2cc1OC
